In data set [1] the test system is calcium concentration in serum. Description: Calcium concentration in serum of vitamin D deficient rats after intravenous administration (OCPC method). The note with it: for Calcium conc. in serum: Table 4: vitamin D deficient rats; for Calcium conc. in serum / Calcium conc.: i.v., mean ± standard error, n = 5.
Protocol: (§2) (1) Male Wistar rats of 4 weeks old were purchased from Japan SLC (SLC, Shizuoka prefecture). The rats were put into wire cages three for each cage and bred under the condition of 23±1° C. and 55±10% humidity by allowing the rats to free ingestion of a vitamin D deficient feed for animal breeding (Ca, 0.0036%; P, 0.3%; Harlan Teklad Research Diet, Madison, Wis., U.S.A.) and drinking water (well water treated with 0.4%±0.2 ppm hypochlorite) for 7 weeks. The number of animals were five for one group.
(§3) (2) As shown in the Table 2, the negative control group (Group 1) was administered with a solvent (5% ethanol/0.1% Triton X-100/physiological saline solution) and the positive control group (Group 2) was administered with 0.5 μg/kg of 1α,25-dihydroxyvitamin D3 by intravenous administration.
(§4) (2) As shown in the Table 3, the negative control group (Group 1) was administered with a solvent (5% ethanol/0.1% Triton X-100/physiological saline solution) and the positive control group (Group 2) was administered with 0.25 μg/kg of 1α,25-dihydroxyvitamin D3 by intravenous administration.
(§5) (2) As shown in the Table 4, the negative control group (Group 1) was administered with a solvent (5% ethanol/0.1% Triton X-100/physiological saline solution) and the positive control group (Group 2) was administered with 1α,25-dihydroxyvitamin D3 at a dose of 0.1 μg/kg, 0.5 μg/kg and 2.5 μg/kg by intravenous administration.
The test system of data set [2] is PTH concentration in serum. As to the kind of experiment: PTH concentration in serum of vitamin D deficient rats after intravenous administration (radioimmunoassay). The data set is classed as in vivo, rat. The note with it: for PTH conc.: mean ± standard error, n = 5. The protocol: The number of animals were five for one group.
The volume of administered liquid was 2 mL/kg.
(§1) The volume of administered solution was 2 mL/kg.

For data set [3], the system named is calcium concentration in serum. The note with it: rat, in vivo.
Protocol: as §2, §3, §4, §5
For data set [4], the system named is intestinal calcium absorption. Description: Calcium absorption activity of the intestinal canal (duodenum) of vitamin D deficient rats, inverted gut sac method. Details: Intestinal calcium absorption: unit not given here. The data set is classed as in vivo, rat. The note with it: for Intestinal calcium absorption: Table 4: vitamin D deficient rats, i.v., Time 8 hrs, mean ± standard error, n = 5; for intestinal calcium absorption promoting activity: 8 hours, vitamin D deficient rats. The method, then: as §1
J. Physiol., vol.216, pp. 1351-1359, 1969.

Setting [5] is: intravenous administration at a dose of 0.5 μg/kg, vitamin D deficient rats.

As to `C=C1/C(=C\C=C2/CCC[C@]3(C)[C@@H]([C@H](C)CCCC(C)(C)O)CC[C@@H]23)C[C@@H](O)C[C@@H]1O` [1α,25-dihydroxyvitamin D3], the “Calcium conc. in serum” value in data set [1] (Administration Rate 0.1 (mg/kg), Time 8 hrs) is 5.30 ± 0.10 mg/100 ml serum; in data set [1] (Administration Rate 0.5 (mg/kg), Time 8 hrs) it was 5.90 ± 0.40 mg/100 ml serum; in data set [1] (Administration Rate 2.5 (mg/kg), Time 8 hrs), 6.17 ± 0.07 mg/100 ml serum. In addition, the “time after administration of the maximum level of calcium concentration in serum” value in data set [1] (setting [5]) is 8 h. For the same molecule, the Calcium conc. in data set [1] (vitamin D deficient rats, Administration Rate 0.5 (mg/kg), Time 4 hrs) was found to be 5.33 ± 0.09 mg/100 ml serum; in data set [1] (vitamin D deficient rats, Administration Rate 0.5 (mg/kg), Time 8 hrs), 6.00 ± 0.17 mg/100 ml serum; in data set [1] (vitamin D deficient rats, Administration Rate 0.5 (mg/kg), Time 24 hrs), 5.87 ± 0.22 mg/100 ml serum; in data set [1] (vitamin D deficient rats, Administration Rate 0.5 (mg/kg), Time 48 hrs), 5.48 ± 0.15 mg/100 ml serum; in data set [1] (vitamin D deficient rats, Administration Rate 0.5 (mg/kg), Time 72 hrs), 5.10 ± 0.18 mg/100 ml serum. For the same molecule, the PTH conc. in data set [2] (Table 3: vitamin D deficient rats, i.v., Administration Rate 0.25, Time 8 hrs) is recorded as 459 ± 14 pg/ml serum; in data set [2] (vitamin D deficient rats, i.v., Administration Rate 0.5, Time 4 hrs), 458 ± 38 pg/ml serum; in data set [2] (vitamin D deficient rats, i.v., Administration Rate 0.5, Time 8 hrs), 399 ± 2 pg/ml serum; in data set [2] (vitamin D deficient rats, i.v., Administration Rate 0.5, Time 24 hrs) it was 325 ± 31 pg/ml serum; in data set [2] (vitamin D deficient rats, i.v., Administration Rate 0.5, Time 48 hrs) it was 488 ± 43 pg/ml serum; in data set [2] (vitamin D deficient rats, i.v., Administration Rate 0.5, Time 72 hrs), 555 ± 67 pg/ml serum. In addition, the “time after administration of the lowest level of PTH concentration in serum” value in data set [2] (setting [5]) worked out at 24 h.

On to `C=C1CC(CC(C)C2CCC3C(=CC=C4CC(O)CC(O)C4=C)CCCC32C)OC1=O` [Compound 11 (23S isomer), (23S)-25-dehydro-1α,25-dihydroxyvitamin D3-26,23-lactone], for which the calcium metabolism activity result in data set [3] is reported as “absolutely unobservable”. Also, the PTH conc. in data set [2] (Table 2: vitamin D deficient rats, i.v., Administration Rate 50, Time 4 hrs) worked out at 354 ± 65 pg/ml serum; in data set [2] (Table 2: vitamin D deficient rats, i.v., Administration Rate 50, Time 8 hrs), 330 ± 72 pg/ml serum; in data set [2] (Table 2: vitamin D deficient rats, i.v., Administration Rate 50, Time 24 hrs), 319 ± 1 pg/ml serum; in data set [2] (Table 2: vitamin D deficient rats, i.v., Administration Rate 50, Time 48 hrs), 436 ± 51 pg/ml serum; in data set [2] (Table 2: vitamin D deficient rats, i.v., Administration Rate 50, Time 72 hrs), 528 ± 38 pg/ml serum; in data set [2] (Table 3: vitamin D deficient rats, i.v., Administration Rate 2, Time 8 hrs), 488 ± 47 pg/ml serum. The PTH conc. is 385 ± 65 pg/ml serum in data set [2] (Table 3: vitamin D deficient rats, i.v., Administration Rate 10, Time 8 hrs) and 319 ± 56 pg/ml serum in data set [2] (Table 3: vitamin D deficient rats, i.v., Administration Rate 50, Time 8 hrs). For the same molecule, the “PTH concentration in serum” value in data set [2] (intravenous administration at a dose of 10 μg/kg, vitamin D deficient rats (Example 1)) is given as “significantly lowered”. In data set [2] (intravenous administration at a dose of 50 μg/kg, vitamin D deficient rats), the “time after administration of the lowest level of PTH concentration in serum” value was 24 h. The “serum PTH concentration lowering action relative to the action of 1α,25-dihydroxyvitamin D3” value in data set [2] (ratio to 1α,25-dihydroxyvitamin D3, vitamin D deficient rats, i.v., 8 hours) is on record as 1/12. Also, in data set [2] (vitamin D deficient rats, Examples 1, 2 and 3), the “effect on PTH concentration in serum versus serum calcium concentration (conclusion in words)” value was “effective for lowering the PTH concentration in serum without changing the calcium concentration in serum”. Moreover, the Intestinal calcium absorption is reported as 1.89 ± 0.04 in data set [4] (Administration Rate 10 (mg/kg)), 2.32 ± 0.21 in data set [4] (Administration Rate 50 (mg/kg)) and 2.53 ± 0.10 in data set [4] (Administration Rate 250 (mg/kg)). For the same molecule, the figures for the “intestinal calcium absorption promoting activity” value in data set [4] (administration dose of from 50 μg/kg to 250 μg/kg i.v.) and in data set [4] (dose of 10 μg/kg i.v.) were “weak” and “absolutely unobservable”, respectively.
